Laboratory results as given in US7883874B2, “Galactooligosaccharide composition and the preparation thereof” (Clasado Inc., priority 2003, dated 2011).

Assay: Case study 1, inflammatory bowel disease (ulcerative colitis)
Type: in vivo, human
Conditions: same patient, used previously
Text: A patient with diagnosed ulcerative colitis (one of 2 major forms of IBD) is cited as a case study on the effects of the GOS product, prepared according to Example 1 The patient had suffered from ulcerative colitis for 5 years and was free of medication prior to, and during, the test period. […] The patient had difficulty in digesting foods, was on a standard diet, suffered from nausea, diarrhoea and abdominal pain. The latter was left side large intestine, which correlated with the diagnosis of colitis based inflammation of the descending colon. A total daily GOS dose of 7 g/d (in 2 separate doses) was ingested. Within 4 days of intake, symptoms began to improve. The patient was better able to digest their diet, gut pains began to recede and nausea was reduced. […] The only change to the diet was the addition of GOS. Six weeks later, this effect has been maintained.

With O=C(O)c1cc(/N=N/c2ccc(S(=O)(=O)Nc3ccccn3)cc2)ccc1O [sulphasalazine] the “effect of earlier treatment on ulcerative colitis” value was “no positive effect”.
